Measurements reported in US20250042872A1, “NOVEL SALT OF 1-SULFONYL PYRROLE DERIVATIVE, METHOD FOR PREPARING SAME, AND PHARMACEUTICAL COMPOSITION INCLUDING SAME” (ILDONG PHARMACEUTICAL CO., LTD., priority 2021, published 2025).
≈ marks a conversion by molar mass, not a printed value. Structures can show the parent of a compound that is named as a salt. Where two headings read alike, the source gives them in different places.

Legend:
Assay type in all cases: physicochemical
[1] = Evaluation of solubility in biorelevant media (water, SGF, FaSSIF, FeSSIF), HPLC; details: for Solubility-1 h Concentration / Solubility-24 h Concentration / solubility at 1 h / solubility at 24 h: 37° C.; for solubility at 1 h / solubility at 24 h: 37 °C, thermodynamic from solid; for solubility at 1 h: read-out: Solubility-1 h Concentration; for solubility at 24 h: read-out: Solubility-24 h Concentration
Method: Solubility in biorelevant media, such as SGF, FeSSIF, and FaSSIF was confirmed with respect to the free base and the hydrochloride salt, succinate salt and L-tartrate salt of 1-(5-(2-fluorophenyl)-4-methoxy-1-((6-methoxypyridin-3-yl)sulfonyl)-1H-pyrrole-3-yl)-N-methylmethanamine that was confirmed through the salt screening analysis result.
Buffers for the biorelevant media were prepared as follows.
Water: Laboratory Milli-Q purified water.
SGF (Stimulated Gastric Fluid): 2.0 g of sodium chloride and 7 mL of hydrochloric acid dissolved in 1000 mL of water were used.
FaSSIF (Fasted State Simulated Intestinal Fluid): A commercial product purchased from Bio-Relevant Company and manufactured according to instructions was used.
FeSSIF (Fed State Simulated Intestinal Fluid): A commercial product purchased from Bio-Relevant Company and prepared according to instructions was used.
For the experiment, about 10 mg of a compound was weighed into each glass vial and then added with 1 mL of a medium (final concentration of 10 mg/mL). Then, the sample was continuously stirred in a magnetic stirrer at 37° C. at a speed of 200 rpm. After stirring for 1 hour and 24 hours, 0.5 mL of the sample solution was transferred to a 1.5 mL centrifuge tube and centrifuged at 12,000 rpm for 5 minutes. The supernatant was diluted with suitable methanol and analyzed by HPLC.
The free acid was selected as a standard sample to quantify the solubility, and about 10 mg of the free acid was weighed into a 25 mL flask and dissolved in methanol to the […].

[2] = Evaluation of drug stability under stress conditions (high temperature open condition 60° C.), XRPD and HPLC; details: 60° C. open; for HPLC peak RT 10.063 min, RRT 1.00 (main peak): in %; for stability under harsh conditions (in words): up to week 2
Method: 10 mg and 40 mg of the free base and the hydrochloride salt of 1-(5-(2-fluorophenyl)-4-methoxy-1-((6-methoxypyridin-3-yl)sulfonyl)-1H-pyrrole-3-yl)-N-methylmethanamine were weighed into each vial and stored under stress conditions to investigate stability.
The stress conditions are as follows:
High temperature open condition: 60° C.;
The bottle neck of the vial was wrapped with aluminum foil with pinholes to avoid contamination, and the samples were analyzed by XRPD and HPLC at the onset (day 0), week 1 and week 2.

[3] = Measurement of hygroscopicity by dynamic vapor sorption (DVS); details: FIGS. 22 and 23
Method: Using DVS intrinsic manufactured by SMS Co., Ltd, about 20 mg of the sample was tested for water sorption/desorption profiles at 25° C. under a 0%˜95%˜0% relative humidity (RH) cycle using the following parameters. • Temperature: T=25° C. • Equilibrium: dm/dt: 0.01%/min. • Range of RH (%) measurement step: 0%˜95%˜0%; RH(%) measurement step: 5%
Using the dynamic vapor sorption (DVS) test method described above, the hygroscopicity was measured for the hydrochloride salt prepared in Example 1 and the L-tartrate salt prepared in Example 8, and the results thereof were shown in FIGS. 22 and 23.

[4] = SGF, simulated gastric fluid, SGF

Row | SMILES | Solubility-1 h Concentration ([1]; FaSSIF) [mg/mL] | Solubility-24 h Concentration ([1]; FaSSIF) [mg/mL] | Assay % ([2]; onset (day 0)) [%] | stability under harsh conditions (in words) [2] | Assay % ([2]; week 1) [%] | hygroscopicity (in words) [3] | solubility at 1 h ([1]; FeSSIF, fessif, FeSSIF) [mg/mL] | solubility at 24 h ([1]; FeSSIF, fessif, FeSSIF) [mg/mL] | solubility at 1 h [1, 4] [mg/mL] | solubility at 24 h [1, 4] [mg/mL] | solubility at 1 h ([1]; water, water, water) [mg/mL] | solubility at 24 h ([1]; water, water, water) [mg/mL] | solubility at 1 h ([1]; FaSSIF, fassif, FaSSIF) [mg/mL] | solubility at 24 h ([1]; FaSSIF, fassif, FaSSIF) [mg/mL] | other results
1 | CNCc1cn(S(=O)(=O)c2ccc(OC)nc2)c(-c2ccccc2F)c1OC [Free base, 1-(5-(2-fluorophenyl)-4-methoxy-1-((6-methoxypyridin-3-yl)sulfonyl)-1H-pyrrole-3-yl)-N-methylmethanamine] | 1.44 (≈ 3.55 mM) | 1.44 (≈ 3.55 mM) | 100.00 | high impurity content | 87.44 | – | – | – | – | – | – | – | – | – | Solubility-1 h Concentration ([1]; FeSSIF): 4.57 mg/mL (≈ 11.3 mM); Solubility-24 h Concentration ([1]; FeSSIF): 4.77 mg/mL (≈ 11.8 mM); Solubility-1 h Concentration ([1]; SGF): >10 mg/mL; Solubility-24 h Concentration ([1]; SGF): >10 mg/mL; Solubility-1 h Concentration ([1]; water): 8.56 mg/mL (≈ 21.1 mM); Solubility-24 h Concentration ([1]; water): 8.63 mg/mL (≈ 21.3 mM); HPLC peak RRT 1.07 ([2]; onset (day 0)): 0.66%; HPLC peak RT 10.063 min, RRT 1.00 (main peak) ([2]; onset (day 0)): 93.15; HPLC peak RRT 1.07 ([2]; week 1): 0.57%; HPLC peak RT 6.797 min, RRT 0.68 ([2]; week 1): 0.43%; HPLC peak RT 7.563 min, RRT 0.75 ([2]; week 1): 1%; HPLC peak RT 10.277 min, RRT 1.02 ([2]; week 1): 9.95%; HPLC peak RRT 0.93 ([2]; week 2): 0.14%; HPLC peak RT 10.063 min, RRT 1.00 (main peak) ([2]; week 2): 65.00
2 | CNCc1cn(S(=O)(=O)c2ccc(OC)nc2)c(-c2ccccc2F)c1OC [Hydrochloride salt, hydrochloride salt of 1-(5-(2-fluorophenyl)-4-methoxy-1-((6-methoxypyridin-3-yl)sulfonyl)-1H-pyrrole-3-yl)-N-methylmethanamine] | 9.71 | 5.92 | 100.50 | excellent stability | 106.14 | very low hygroscopicity | 4.45 | 4.37 | > 10 | > 10 | > 10 | > 10 | – | – | solubility in FaSSIF (in words) ([1]; fasted state simulated intestinal fluid): very good
3 | CNCc1cn(S(=O)(=O)c2ccc(OC)nc2)c(-c2ccccc2F)c1OC.O=C(O)C(O)C(O)C(=O)O [L-tartrate salt, L-tartrate salt of 1-(5-(2-fluorophenyl)-4-methoxy-1-((6-methoxypyridin-3-yl)sulfonyl)-1H-pyrrole-3-yl)-N-methylmethanamine] | – | – | – | – | – | very low hygroscopicity | 4.55 | 4.54 | > 10 | > 10 | > 10 | > 10 | 8.16 | > 10 | –
4 | CNCc1cn(S(=O)(=O)c2ccc(OC)nc2)c(-c2ccccc2F)c1OC.O=C(O)CCC(=O)O [Succinate salt, succinate salt of 1-(5-(2-fluorophenyl)-4-methoxy-1-((6-methoxypyridin-3-yl)sulfonyl)-1H-pyrrole-3-yl)-N-methylmethanamine] | – | – | – | – | – | – | 4.78 | 4.72 | > 10 | > 10 | > 10 | > 10 | 8.1 | > 10 | –
